Data on two molecules can be found in PMC10707468, “Pharmacokinetics of Novel Dopamine Transporter Inhibitor CE-123 and Modafinil with a Focus on Central Nervous System Distribution” (International Journal of Molecular Sciences, 2023).

One data set relates to DAT. As to conditions: read-out: Half-maximal inhibitory concentration, IC50, cited from earlier work.
Data set [1] in a line: In vivo rat tissue biodistribution / neuroPK study, 4 h intravenous constant infusion. Further details: species or system Sprague-Dawley rats. The conditions noted are these: rat; for Kp at 4 h / concentration at 4 h: Sprague-Dawley; for Kp at 4 h: brain (whole brain homogenate) relative to plasma, steady state, read-out: Total brain-to-plasma concentration ratio, Kp,brain; for concentration at 4 h: intravenous, 20 mg/kg; for order of Kp,tissue from highest to lowest: total tissue-to-plasma concentration ratio. Here is the method: The results are summarized in Figure 4 and Table S2 within Supplementary Materials.
(§1) In order to minimize the usage of animals and gain high confidence in the tissue distribution, a 4 h constant intravenous infusion study was designed based on the systemic pharmacokinetic parameters determined elsewhere. The catheters were surgically implanted a day before the PK experiment. The rats (n = 3 per compound) were then individually placed into a CMA 120 system (CMA, Solna, Sweden). […] A dose of 20 mg/kg was administered as a combination of an initial short 10 min infusion as a loading dose followed by a constant infusion up to 4 h, targeting a steady-state total plasma concentration of around 1000 ng/mL for each compound (based on the pilot study results). Blood was collected into heparinized Eppendorf tubes via a femoral artery catheter at 0 (before infusion starts) 1, 2, 3, and 4 h after the infusion started and immediately centrifuged at 10,000 rpm for 5 min at +4 °C. Plasma was then collected and kept at −20 °C. At 4 h, the rats were anesthetized via inhalation of 2.5% isoflurane (Abbot Scandinavia, Solna, Sweden), balanced with 1.5 L/min oxygen, after which the terminal blood and tissue samples were collected. […] The tissue samples (brain, spinal cord, liver, and kidney) were rapidly removed, pre-weighed into a 2 mL hard tissue homogenizing tube with mini-beads, and subsequently homogenized in 2 volumes of MQ water using a 4-Place Bead Mill Homogenizer (VWR, Stockholm, Sweden) at the maximal speed for 2 min and thereafter kept at +4 °C. The plasma and tissue homogenate samples were stored at −20 °C until LC–MS analysis.
For all the rat plasma and CSF samples, an aliquot of 50 µL was spiked with 50 µL of 4% PA in water containing the IS solution to disrupt the drug–protein binding. For all rat tissue samples (brain, spinal cord, liver, and kidney), an aliquot of 50 µL was spiked with 50 µL ice-cold ACN containing the IS solution for protein precipitation. The samples were vortexed and spun down for 10 min (3000× g, 4 °C) and 25 µL of clear supernatant was diluted with 225 µL 0.1% FA in water to achieve 10% of ACN in the solution. SPE clean-up was performed using an Oasis PRiME HLB µElution 96-well plate, 3 mg (Waters Corporation, Vienna, Austria). The SPE cartridges were preconditioned and equilibrated with 1 × 200 µL ACN and 0.1% FA in water each. The samples were loaded onto the cartridges and washed with 2 × 200 µL 0.1% FA in water and 1 × 200 µL ACN/0.1% FA in water 10:90 (v:v). The analytes were eluted from the SPE cartridge into a collection plate with 2 × 25 µL ACN/0.1% FA in water 70:30 (v:v). All the samples were diluted with 50 µL of 0.1% FA in water and 10 µL of sample was injected onto the LC–HRMS system.
All samples, blanks, standards, and quality control samples in the respective matrices were analyzed on a UHPLC system (Dionex UltiMate 3000 RSLC series system, Thermo Fisher Scientific, Inc., Dreieich, Germany) coupled with a high-resolution mass spectrometer (maXis HD Q-TOF, Bruker Daltonics, Bremen, Germany) equipped with a heated electrospray ionization (ESI) source. Reversed-phase chromatographic separation was performed on a Kinetex Phenyl-Hexyl column (2.6 µm, 2.1 × 50 mm, Phenomenex, Torrance, CA, USA), equipped with a precolumn (2.6 µm, Phenomenex, Torrance, CA, USA), at a flow rate of 0.4 mL/min. Eluent A was water containing 0.1% FA and eluent B ACN. A multi-step gradient was optimized as follows: the initial mobile phase composition (5% eluent B) was held constant for 1 min, followed by a linear increase to 30% eluent B until minute 1.5, to 40% eluent B until minute 5.5, and to 95% eluent B until minute 6. After a hold time of 2 min, the column was re-equilibrated for 2.5 min at the initial conditions (5% eluent B). The column compartment and the autosampler were maintained at 40 °C and at 8 °C, respectively. […]

A short description of data set [2]: Systemic pharmacokinetic parameters used in simulation exercise. Format: in vivo, rat. The conditions noted are these: parameter used in simulation; for clearance / Vd: plasma; for clearance: rat 0.3 kg, read-out: Systemic clearance, CL (converted); for Vd: rat, read-out: Apparent volume of distribution, Vd. The method, then:
as §1
The simulation was performed at a given initial total plasma concentration to be equal to the steady-state concentrations obtained in the neuroPK study, utilizing the parameters listed in Supplementary Table S4. A two-compartment model consisting of blood and brain compartments with a focus on the unbound concentrations was used for the simulation exercise (see details on the structure of the model in Supplementary Figure S5). The representative unbound plasma and brain profiles are presented in Supplementary Figure S6.
(§2) Table S4. Parameters used in simulation exercise.
(§3) Fraction of un bound in unitless 0.252 0.797
(§4) Rate of BBB transport parameters*
(§5) Ext ent of BBB transport and intra-brain dist ribution
(§6) Unbound brain-t o-plasma unitless 0.46 0.097 concentrati on rat io, Kp,uu,brain
(§7) Unbound volume of mL/g brain 5.21 3.73 distribution in brain, Vu,brain
(§8) Additional parameters used
(§9) Infusi on rate mg/h 0.05 1.0
(§10) * Data of blood-brain barrier per meation of 100 µM CE-123 and modafinil across an in vitro Transw ell model based on mouse cell line cerebEND were included in the simulation. Experimental procedures were published previously The permeability coefficients w ere calculated according to the clearance principle deduct ing blank inserts without cells.
(§11) **Similar apparent permeability in human BBB cell culture model and rat endot helial cells was assumed.

Data set [3] has as its system cerebEND in vitro model of the blood–brain barrier. The experiment in a line: In vitro Transwell blood-brain barrier model based on mouse cell line cerebEND. Format: in vitro ADME. The conditions noted are these: for Clin (rate of BBB transport) / Clout (rate of BBB transport): parameter used in simulation; for Pe rat: scaled with BBB surface area 180 cm2, similar permeability in rat assumed.
From the text: Research on modafinil analogs has gained significant momentum in recent decades due to the compound’s unique pharmacological properties and potential therapeutic applications. The primary objectives of these studies were to identify modafinil analogs that can address a wide range of cognitive deficits and neurological conditions effectively, with a reduced risk of side effects. In our previous study, we reported a series of modafinil analogs with higher DA reuptake inhibition activity and higher selectivity for the DAT in comparison to modafinil. These improvements were achieved by making strategic modifications involving the substitution of the carboxamide moiety with five- and six-membered aromatic heterocycles. […] In addition, Kristofova et al. (2018) have used the mouse cell line cerebEND as an in vitro model to study the ability of CE-123 to cross an in vitro model of the blood–brain barrier (BBB). […] Yet, due to significant differences in the plasma pharmacokinetic (PK) profiles, governed primarily by differences in metabolism, direct comparison between two compounds after single IP dosing could be misleading.
as §2, §3, §4, §5, §6, §7, §8, §9, §10, §11

[4] abbreviates: 4 h iv constant infusion 20 mg/kg.
Where [5] appears, read: brain, 4 h iv constant infusion 20 mg/kg, n=3, read-out: Total concentration in brain.
Where [6] appears, read: kidney, 4 h iv constant infusion 20 mg/kg, n=3, read-out: Total concentration in kidney.
Setting [7] is: liver, 4 h iv constant infusion 20 mg/kg, n=3, read-out: Total concentration in liver.
The mark [8] stands for this setting: plasma, 4 h iv constant infusion 20 mg/kg, n=3, read-out: Total concentration in plasma.
Where [9] appears, read: plasma, 4 h iv constant infusion 20 mg/kg, read-out: Total drug concentration in plasma, Ctot,plasma.
Setting [10] is: plasma, 4 h iv constant infusion 20 mg/kg, read-out: Total steady-state plasma concentration, Cplasma,ss.
Setting [11] is: plasma, mean, in vivo study, 4 h iv infusion 20 mg/kg, read-out: Unbound-drug concentration in plasma, Cu,plasma.
Setting [12] is: spinal cord, 4 h iv constant infusion 20 mg/kg, n=3, read-out: Total concentration in spinal cord.

Several values for one entry are separate records, joined by “and”; a condition that tells them apart may be missing. Identical values can stand only once. Like-named read-outs stand apart in the source and are kept apart here.

As usually defined, the clearance is the rate of elimination divided by the concentration.

Take `NC(=O)C[S@@+]([O-])C(c1ccccc1)c1ccccc1` [R-modafinil, reference compound]: in the data set on DAT (ref Loland et al. 2012 [27]), the IC50 is […]. Further, the Kp at 4 h in data set [1] (setting [4]) came to 0.29 ± 0.013. For the same molecule, the concentration at 4 h stood at 0.784 µg/mL in data set [1] (CSF, cisterna magna, 4 h iv infusion 20 mg/kg, single rats, read-out: Total concentration in CSF); 448 ng/g in data set [1] (setting [5]); 0.471 µg/mL in data set [1] (brain, single sample, rat brain after 4 h iv infusion 20 mg/kg, read-out: concentration in rat brain sample (Figure S4 chromatogram)); 2540 ng/g in data set [1] (setting [6]); 2170 ng/g in data set [1] (setting [7]); 1.01 µg/mL in data set [1] (setting [8]). Moreover, the concentration at 4 h in data set [1] (setting [9]) stood at 3.69 µM; in data set [1] (setting [10]), 5.57 ± 0.649 µM; in data set [1] (setting [11]) it was 2.91 µM; in data set [1] (setting [12]) it was 733 ng/g. In addition, the “order of Kp,tissue from highest to lowest” value in data set [1] was “kidneys > liver > spinal cord > brain”. Further, in data set [2], the “Systemic clearance unbound, Clu” value was 1.194 L/h. For the same molecule, in data set [2], the clearance is 25 mL/min. Also, the Vd in data set [2] is 1.02 L. The “Clin (rate of BBB transport)” value in data set [3] is recorded as 0.025 L/h. The “Clout (rate of BBB transport)” value in data set [3] was 0.261 L/h. In data set [3], this molecule yielded a Pe rat of 0.422 mL/min.
For the molecule `[O-][S@@+](Cc1cncs1)C(c1ccccc1)c1ccccc1` [S-CE-123], in the data set on DAT (ref Kristofova et al. 2018 [36]), the IC50 is 4.6 µM. Further, the Kp at 4 h in data set [1] (setting [4]) was 0.61 ± 0.1. Besides, the concentration at 4 h stood at 820 ng/g in data set [1] (setting [5]); 1780 ng/g in data set [1] (setting [6]); 2730 ng/g in data set [1] (setting [7]); 1.05 µg/mL in data set [1] (setting [8]); 3.35 µM in data set [1] (setting [9]); 4.15 ± 2.2 µM in data set [1] (setting [10]). The concentration at 4 h in data set [1] (setting [11]) worked out at 0.839 µM; in data set [1] (setting [12]), 1240 ng/g. Also, in data set [1] (cisterna magna, 4 h iv infusion 20 mg/kg, single rats), the “Total concentration in CSF” value was 570 ng/mL and 104 ng/mL. Besides, the “order of Kp,tissue from highest to lowest” value in data set [1] was “liver > kidneys > spinal cord > brain”. The “Systemic clearance unbound, Clu” value in data set [2] was 0.046 L/h. For the same molecule, the clearance in data set [2] was 3.07 mL/min. In addition, the Vd in data set [2] is 0.232 L. The “Clin (rate of BBB transport)” value in data set [3] is reported as 0.033 L/h. The “Clout (rate of BBB transport)” value in data set [3] was 0.071 L/h. In data set [3], this molecule displayed a Pe rat of 0.545 mL/min.
